Test results as given in ChEMBL document CHEMBL3638462, “Pyridine and pyrimidine derivatives as phosphodiesterase 10 inhibitors” (2014).
pIC50: −log10 of the molar value. Where “and” joins values, the source holds several entries; their conditions need not be identical. Equal entries are not always repeated.

Molecular target: cAMP and cAMP-inhibited cGMP 3',5'-cyclic phosphodiesterase 10A (Homo sapiens, UniProt Q9Y233)
Experiment: Enzyme Inhibition Assay: To check the inhibition profile, 5 μL of serial diluted compounds were incubated with 5 μL of diluted PDE10 enzyme (BPS Bioscience, San Diego, Calif.) or tissue homogenate in a 384-well polystyrene assay plate (Corning, Corning, N.Y.) for 30 min at room temperature. After incubation, 10 μL of diluted fluorescein labeled cAMP or cGMP substrate were added and incubated for 60 min at room temperature. The reaction was stopped by adding 60 μL of diluted binding reagents and plates were read on an Envision (Perkin Elmer, Waltham, Mass.) for time resolved fluorescence resonance energy transfer. The data were analyzed with GraphPad Prism (La Jolla, Calif.).

Sequence of cAMP and cAMP-inhibited cGMP 3',5'-cyclic phosphodiesterase 10A (Q9Y233 whole entry): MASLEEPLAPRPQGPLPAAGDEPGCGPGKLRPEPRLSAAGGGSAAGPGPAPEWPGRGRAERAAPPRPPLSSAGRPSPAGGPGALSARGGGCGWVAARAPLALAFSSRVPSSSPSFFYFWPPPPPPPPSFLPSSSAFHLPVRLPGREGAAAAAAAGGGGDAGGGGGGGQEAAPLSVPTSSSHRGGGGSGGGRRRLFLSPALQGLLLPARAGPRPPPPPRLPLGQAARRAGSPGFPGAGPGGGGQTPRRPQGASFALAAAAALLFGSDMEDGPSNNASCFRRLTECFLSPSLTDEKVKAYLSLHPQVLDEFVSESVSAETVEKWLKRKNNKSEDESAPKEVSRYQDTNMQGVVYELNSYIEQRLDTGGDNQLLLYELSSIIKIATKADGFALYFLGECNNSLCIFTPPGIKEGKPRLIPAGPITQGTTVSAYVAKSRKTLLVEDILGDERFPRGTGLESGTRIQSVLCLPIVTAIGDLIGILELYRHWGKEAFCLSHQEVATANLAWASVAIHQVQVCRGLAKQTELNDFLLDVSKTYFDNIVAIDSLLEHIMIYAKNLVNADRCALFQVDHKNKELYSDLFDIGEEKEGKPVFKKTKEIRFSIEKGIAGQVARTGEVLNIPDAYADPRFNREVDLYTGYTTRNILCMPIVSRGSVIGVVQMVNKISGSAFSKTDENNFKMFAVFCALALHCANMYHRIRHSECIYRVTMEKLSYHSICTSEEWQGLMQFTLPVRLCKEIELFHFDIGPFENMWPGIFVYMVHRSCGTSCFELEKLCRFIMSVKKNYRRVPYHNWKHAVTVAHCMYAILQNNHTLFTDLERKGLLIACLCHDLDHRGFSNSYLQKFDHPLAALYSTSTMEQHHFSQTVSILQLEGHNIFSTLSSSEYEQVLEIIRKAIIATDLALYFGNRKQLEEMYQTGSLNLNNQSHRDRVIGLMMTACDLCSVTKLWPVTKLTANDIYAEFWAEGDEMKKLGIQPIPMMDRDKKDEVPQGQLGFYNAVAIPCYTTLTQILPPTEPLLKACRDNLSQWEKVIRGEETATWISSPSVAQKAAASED

SMILES | pIC50
CC(C)c1ccc(Cn2c(Nc3ccc(Oc4ncccc4C4CCOCC4)cc3)nc3ccccc32)cc1 | 7.50
OC(c1ccc(Oc2ncccc2C2=CCOCC2)cc1)c1nc2ccccc2s1 (stereo not given) | 6.29
O=C(c1ccc(Oc2ncccc2[C@H]2CC[C@](O)(C(F)(F)F)CC2)cc1)c1nc2ccccc2[nH]1 | 7.90
COc1cccnc1-c1cccnc1Oc1ccc(Nc2nc3ccccc3s2)cc1 | 6.63
O=C(c1ccc(Oc2ncccc2[C@H]2CC[C@]3(CCO3)CC2)cc1)c1nc2ccccc2[nH]1 | 9.19
C[C@]1(O)CC[C@H](c2cccnc2Oc2ccc(C(=O)c3nc4ccccc4[nH]3)cc2)C1 | 9.18
C[C@]1(O)CC[C@@H](c2cccnc2Oc2ccc(C(=O)c3nc4ccccc4[nH]3)cc2)C1 | 9.12
O=C(c1ccc(Oc2ncccc2[C@@H]2CC[C@@H](CO)C2)cc1)c1nc2ccccc2[nH]1 | 9.50
O=C(c1ccc(Oc2ncccc2[C@@H]2CC[C@H](CO)C2)cc1)c1nc2ccccc2[nH]1 | 9.51
O=C(c1ccc(Oc2ncccc2[C@H]2CC[C@@H](CO)C2)cc1)c1nc2ccccc2[nH]1 | 9.67
O=C(c1ccc(Oc2ncccc2-c2ccnc(Cl)c2)cc1)c1nc2ccccc2[nH]1 | 8.79
C[C@@]1(O)CC[C@@H](c2cccnc2Oc2ccc(Nc3nc4ccccc4s3)cc2)C1 | 7.97
C[C@]1(O)CC[C@H](c2cccnc2Oc2ccc(Nc3nc4ccccc4s3)cc2)C1 | 8.64
O[C@H]1CCC[C@H](c2cccnc2Oc2ccc(Nc3nc4ccccc4s3)cc2)C1 | 8.00
Fc1ccc(Cn2c(Nc3ccc(Oc4ncccc4C4CCOCC4)cc3)nc3ccccc32)cc1 | 8.04
O=C(c1ccc(Oc2ncccc2[C@@H]2CCC[C@@H](O)C2)cc1)c1nc2ccccc2[nH]1 | 9.84 and 9.23
CC(=O)N1CCC(c2cccnc2Oc2ccc(C(=O)c3nc4ccccc4n3C)cc2)CC1 | 8.97
O=C(c1ccc(Oc2ncccc2[C@H]2CCC[C@H](O)C2)cc1)c1nc2ccccc2[nH]1 | 8.77
Cc1cc(-c2cccnc2Oc2ccc(C(=O)c3nc4ccccc4n3C)cc2)ccn1 | 8.21
COc1ccc(Cn2c(Nc3ccc(Oc4ncccc4C4CCOCC4)cc3)nc3ccccc32)cc1 | 8.77
c1ccc(-n2ncc3cc(Oc4ncccc4C4CCCCC4)ccc32)nc1 | 6.38
COc1ccnc(-c2cccnc2Oc2ccc(C(=O)c3nc4ccccc4n3C)cc2)c1 | 8.75
Cc1cnc(Oc2ccc(C(=O)c3nc4ccccc4n3C)cc2)c(-c2ccnc(C)c2)c1 | 8.94
O=C(c1ccc(Oc2ncccc2C2CCNCC2)cc1)c1nc2ccccc2[nH]1 | 8.68

The remaining lines, values ahead:

pIC50 | SMILES
8.87 | O=C(c1ccc(Oc2ncccc2C2CCOCC2)cc1)c1nc2ncccc2[nH]1
9.51 | O=C(c1ccc(Oc2ncccc2[C@H]2CC[C@@H](O)CC2)cc1)c1nc2ccccc2[nH]1
10.00 | O=C(c1ccc(Oc2ncccc2[C@H]2CC[C@H](O)CC2)cc1)c1nc2ccccc2[nH]1
10.19 | CC(=O)N1CCCC[C@@H]1c1cccnc1Oc1ccc(C(=O)c2nc3ccccc3[nH]2)cc1
8.63 | COc1cccc(-c2cccnc2Oc2ccc(C(=O)c3nc4ccccc4[nH]3)cc2)n1
9.14 | O=C(c1ccc(Oc2ncccc2[C@H]2CC[C@@](O)(C(F)(F)F)C2)cc1)c1nc2ccccc2[nH]1
8.80 | O=C(c1ccc(Oc2ncccc2[C@@H]2CC[C@](O)(C(F)(F)F)C2)cc1)c1nc2ccccc2[nH]1
7.77 | COc1cccnc1-c1cccnc1Oc1ccc(C(=O)c2nc3ccccc3[nH]2)cc1
8.81 | CC(=O)N1CC=C(c2cncnc2Oc2ccc(C(=O)c3nc4ccccc4[nH]3)cc2)CC1
8.39 | COc1cncc(-c2cccnc2Oc2ccc(Nc3nc4ccccc4s3)cc2)c1
8.06 | COc1ccc(-c2cccnc2Oc2ccc(C(=O)c3nc4ccccc4[nH]3)cc2)nc1
10.30 | O=C(c1ccc(Oc2ncccc2[C@@H]2CCCOCC2)cc1)c1nc2ccccc2[nH]1
10.11 | O=C1CCCC(c2cccnc2Oc2ccc(C(=O)c3nc4ccccc4[nH]3)cc2)CC1 (stereo not given)
9.58 | COc1cnccc1-c1cccnc1Oc1ccc(C(=O)c2nc3ccccc3[nH]2)cc1
7.99 | Cn1c(C(=O)c2ccc(Oc3ncccc3-c3ccnc(F)c3)cc2)nc2ccccc21
9.28 | CC(=O)N1CC[C@@H](c2cccnc2Oc2ccc(C(=O)c3nc4ccccc4[nH]3)cc2)C1

pIC50 | SMILES
6.38 | COc1nc2ccccc2cc1-c1cccnc1Oc1ccc(C(=O)c2nc3ccccc3[nH]2)cc1
9.79 | O=C(c1ccc(Oc2ncccc2-c2cccnc2F)cc1)c1nc2ccccc2[nH]1
8.93 | O=C(c1ccc(Oc2ncccc2-c2cc[nH]c(=O)c2)cc1)c1nc2ccccc2[nH]1
9.16 | COc1ccc(-c2cccnc2Oc2ccc(C(=O)c3nc4ccccc4[nH]3)cc2)c(OC)n1
8.97 | CSc1cncc(-c2cccnc2Oc2ccc(C(=O)c3nc4ccccc4[nH]3)cc2)c1
9.20 | O=C(c1ccc(Oc2ncccc2C2CCS(=O)(=O)CC2)cc1)c1nc2ccccc2[nH]1
7.92 | COc1cc(-c2cccnc2Oc2ccc(Nc3nc4ccccc4s3)cc2)ccn1
9.92 | COc1cnccc1-c1cccnc1Oc1ccc(C(=O)c2nc3ccccc3n2C)cc1
9.13 | COc1cnccc1-c1cccnc1Oc1ccc(Nc2nc3ccccc3s2)cc1
10.14 | COc1ccncc1-c1cccnc1Oc1ccc(C(=O)c2nc3ccccc3[nH]2)cc1
8.64 | O=C(c1ccc(Oc2ncccc2C2CCOC2)cc1)c1nc2ccccc2n1CCF (stereo not given)
9.04 | COc1ccncc1-c1cccnc1Oc1ccc(Nc2nc3ccccc3s2)cc1
8.39 | COc1ccnc(-c2cccnc2Oc2ccc(C(=O)c3nc4ccccc4[nH]3)cc2)c1
8.86 | Cc1cnc(Oc2ccc(C(=O)c3nc4ccccc4[nH]3)cc2)c(-c2ccnc(C)c2)c1
7.64 | COc1ncc(-c2ccnc(F)c2)c(Oc2ccc(C(=O)c3nc4ccccc4[nH]3)cc2)n1
